# Assay results as given in patent US5670501A, “N-substituted 9-alkyladenines” (Discovery Therapeutics, Inc., priority 1994, dated 1997).
# Assays:
# adenosine A1 receptor [1] = biological target: T1, adenosine A1 receptor (Cavia porcellus, UniProt P47745); experiment: Receptor affinity (radioligand binding), A1, [3H]CHA, guinea pig tissue; settings: room temperature, 2 hours, value obtained using guinea pig tissue
# T1 construct: from tissue; host or cells: isolated guinea pig left atria
# T1 sequence (P47745 1-326): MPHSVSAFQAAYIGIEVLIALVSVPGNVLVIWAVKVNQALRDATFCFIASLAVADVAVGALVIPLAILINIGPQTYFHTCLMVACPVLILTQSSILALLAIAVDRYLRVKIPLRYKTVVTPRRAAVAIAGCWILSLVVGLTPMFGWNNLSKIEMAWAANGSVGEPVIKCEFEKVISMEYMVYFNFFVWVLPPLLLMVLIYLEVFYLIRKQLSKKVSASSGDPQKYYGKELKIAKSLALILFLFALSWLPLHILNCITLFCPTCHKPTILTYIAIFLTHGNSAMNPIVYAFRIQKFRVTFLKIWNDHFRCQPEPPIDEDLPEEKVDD
# Method: (§1) 1. Receptor Affinity Experiments (Radioligand Binding)
# (§2) Tissues (bovine caudate, guinea pig cortex, guinea pig striatum) were homogenized with a Brinkman polytron and the membranes were collected by centrifugation at 40,000×g at 4° C. for 10 min. The membranes were washed by resuspension and centrifugation, resuspended, and incubated in the presence of 1 U/ml adenosine deaminase for 15-30 min. at 37° C. The membranes were diluted, centrifuged once, and resuspended to a final concentration of 0.5-2 mg protein/ml. Adenosine deaminase (0.1 U/ml) was included in the final resuspension. Assays were initiated by addition of membranes. The compounds of the present invention were subjected to the following experimental conditions: A1 determinations/incubated with [^3 H]CHA at room temperature for 2 hours, A2 determinations/incubated with [^3 H]NECA at room temperature for 1 hour. Assays were terminated by filtration, and the filters were counted in scintillation counters.
# *This value was obtained using guinea pig tissue.
# adenosine A1 receptor [2] = biological target: T1, adenosine A1 receptor; experiment: A1 in vitro functional test: negative inotropic response, left atria, antagonism of NECA; type: cell-based, guinea pig; settings: for Selectivity Ratio (A2 KB /A1 KB): functional; for Kb: guinea pig left atria, electrically evoked twitch, NECA agonist, 31° C, Schild plot, read-out: A1 KB (antagonist dissociation constant)
# Method: 2. Adenosine--A1 /A2 In Vitro Functional Tests
# (A1 Assay: Negative inotropic response)-Guinea pig left atria were placed in organ baths filled with Krebs Henseleit solution gassed with 95% O2 and 5% CO2 and maintained at a temperature of 31° C. An initial resting tension of 1 gm. was placed on each tissue, which was allowed to equilibrate. Atria were stimulated electrically to produce twitch responses. A dose-response curve for the inhibition of the electrically-evoked twitch response was obtained by cumulative addition of the adenosine agonist […]. After the washout of the tissue, a fixed concentration of test compound was added and the tissue allowed to equilibrate for 1 hr. before cumulative additions of the adenosine agonist 5'-N-ethylcarboxamidoadenosine (NECA) to generate a new dose response curve. This procedure was repeated with different fixed concentrations of test compounds to generate a family of dose response curves. Schild plots were constructed from the resultant concentration-effect curves, and KB (antagonist dissociation constant) values were obtained. The results (see Table VII) are expressed as KB values (concentration of test compound such that one-half of the tissue adenosine receptor population is occupied by the test compound).
# adenosine A2 receptor = experiment: Receptor affinity (radioligand binding), A2, [3H]NECA; parameters: species or system bovine / guinea pig; settings: room temperature, 1 hour
# Method: as §1, §2
# adenosine A1 receptor [3] = biological target: T2, adenosine A1 receptor (Bos taurus, UniProt P28190); experiment: Receptor affinity (radioligand binding), A1, [3H]CHA; parameters: species or system bovine; settings: for Selectivity Ratio (A2 Ki /A1 Ki): radioligand binding; for Ki: [3H]CHA, room temperature, 2 hours, tissues listed: bovine caudate, guinea pig cortex, guinea pig striatum (only Example 13 marked guinea pig)
# T2 construct: were homogenized with a Brinkman polytron and the membranes were collected by centrifugation; from tissue; host or cells: bovine caudate membranes
# T2 sequence (P28190 1-326): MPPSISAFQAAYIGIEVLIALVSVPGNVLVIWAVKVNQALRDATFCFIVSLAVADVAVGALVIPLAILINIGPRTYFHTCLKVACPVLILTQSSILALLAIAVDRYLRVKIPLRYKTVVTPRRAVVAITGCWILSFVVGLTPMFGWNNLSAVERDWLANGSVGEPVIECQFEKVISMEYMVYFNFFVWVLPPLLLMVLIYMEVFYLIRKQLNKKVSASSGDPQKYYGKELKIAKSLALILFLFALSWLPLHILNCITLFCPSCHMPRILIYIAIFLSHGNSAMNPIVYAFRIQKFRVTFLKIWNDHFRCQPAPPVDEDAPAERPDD
# Method: as §1, §2
Structure (SMILES),Ki (adenosine A1 receptor [1]) [nM],Selectivity Ratio (A2 KB /A1 KB) (adenosine A1 receptor [2]),Kb (adenosine A1 receptor [2]) [nM],Ki (adenosine A2 receptor) [nM],Selectivity Ratio (A2 Ki /A1 Ki) (adenosine A1 receptor [3]),Ki (adenosine A1 receptor [3]) [nM]
"Cn1cnc2c(NC3CCCCC3)ncnc21 [Example 47, N^6-cyclohexyl-9-methyladenine, reference compound]",,> 152,2080,11000,241,45.7
"Cn1cnc2c(NC3CCCC3)ncnc21 [Example 48, N^6-cyclopentyl-9-methyladenine, reference compound]",,> 395,759,5010,501,10

# Continued by falling Ki (adenosine A2 receptor), values first:
Ki (adenosine A1 receptor [1]) [nM],Selectivity Ratio (A2 KB /A1 KB) (adenosine A1 receptor [2]),Kb (adenosine A1 receptor [2]) [nM],Ki (adenosine A2 receptor) [nM],Selectivity Ratio (A2 Ki /A1 Ki) (adenosine A1 receptor [3]),Ki (adenosine A1 receptor [3]) [nM],Structure (SMILES)
,,501,1350,219,6.17,"CN(C)c1nc2c(NC3CCCC3)ncnc2n1C [Example 8, N^6-cyclopentyl-8-dimethylamino-9-methyladenine]"
6.31,> 20000,5,1050,166,,"CC(C)N(C)c1nc2c(N[C@H]3C[C@H]4CC[C@@H]3C4)ncnc2n1C (relative stereo) [Example 13, (±)-N^6-(endo-2'-norbornyl)-8-isopropylmethylamino-9-methyladenine]"
,,71,363,145,2.5,"CSc1nc2c(NC3CCCC3)ncnc2n1C [Example 12, N^6-cyclopentyl-8-methylthio-9-methyladenine]"
